Data taken from US4877893A, “Process for the preparation of 2-(O-alkyl)-2-thio-1,3,2-oxathiophospholanes” (priority 1987, dated 1989).

Key:
Assay in all cases: Fungicidal effect on infected agar nutrient media, colony diameter
Type in all cases: cell-based
[1] = tested on: Sclerotinia sclerotinia; details: 3rd day after treatment, untreated control 41.7
Experimental: (§1) Agar nutrient media (Diameter 70 MM, thickness 10 mm) infected by Sclerotonia sclerotinia suspension are treated with 20 EC formulations prepared according to Example 27 and comprising 1, 10, 100 and 1000 ppm, respectively of the active ingredient of the Formula I. The fungicidal effect of the compositions is evaluated on the 3rd day after treatment by measuring the diameter of the Fungi colonies.

[2] = tested on: Penicillium cyclopium; details: 7th day after treatment, untreated 26.5
Experimental: as §1
The series of measureents described in Example 35 is carried out except that the agar nutrient media are infected by a Penicillium cyclopium Fungi strain and the test is evaluated on the 7th day after treatment.

[3] = tested on: Alternaria tenuis; details: 5th day after treatment, untreated control 36.8
Experimental: as §1
The series of measurements according to Example 35 is carried out except that the agar nutrient media are infected by Alternaria Tenius and evaluation is accomplished on the 5th day after treatment.

Structure (SMILES)	Diameter of colony (mm) ([1]; 1 ppm)	Diameter of colony (mm) ([1]; 10 ppm)	Diameter of colony (mm) ([1]; 100 ppm)	Diameter of colony (mm) ([1]; 1000 ppm)	Diameter of colony (mm) ([2]; 1 ppm)	Diameter of colony (mm) ([2]; 10 ppm)	Diameter of colony (mm) ([2]; 100 ppm)	Diameter of colony (mm) ([2]; 1000 ppm)	Diameter of colony (mm) ([3]; 1 ppm)	Diameter of colony (mm) ([3]; 10 ppm)	Diameter of colony (mm) ([3]; 100 ppm)	Diameter of colony (mm) ([3]; 1000 ppm)
CC(CI)OP1(=S)OC(C)C(C)S1 (stereo not drawn) [Compound 36]	37.2	26.9	0	0	23.2	16.8	7.2	0	32.5	20.7	4.3	0
CC1CSP(=S)(OC(C)C(C)Cl)O1 (stereo not drawn) [Compound 37]	39.2	27.1	0	0	19.9	17.5	6.6	0	30.8	21.9	5.6	0
CC1CSP(=S)(OC(C)C(C)Br)O1 (stereo not drawn) [Compound 38]	37.8	31.3	0	0	24.3	18.6	7.4	0	30.2	24.5	6.9	0
CC1CSP(=S)(OC(C)C(C)I)O1 (stereo not drawn) [Compound 39]	37.2	30.2	3.6	0	21.1	15.8	4.7	0	34.6	23.3	7.3	0
CC(Cl)COP1(=S)OC(C)C(C)S1 (stereo not drawn) [Compound 40]	34.9	28.0	1.9	0	18.9	20.0	6.8	0	31.3	21.7	6.1	0
CC(Br)COP1(=S)OC(C)C(C)S1 (stereo not drawn) [Compound 41]	37.6	30.0	2.6	0	24.1	16.4	4.9	0	33.8	25.1	7.3	0
CC(I)COP1(=S)OC(C)C(C)S1 (stereo not drawn) [Compound 42]	38.2	31.2	3.5	0	22.2	17.2	7.5	0	32.1	20.4	9.0	0
CC(Cl)C(C)OP1(=S)OC(C)C(C)S1 (stereo not drawn) [Compound 43, 2-(0-1',2'-dimethyl-2'-chloroethyl)-2-thio-4,5-dimethyl-1,3,2-oxathiophospholane]	37.6	28.2	2.4	0	25.2	18.4	6.3	0	32.4	23.3	6.2	0
CC(Br)C(C)OP1(=S)OC(C)C(C)S1 (stereo not drawn) [Compound 44]	35.4	28.1	4.0	0	17.9	17.1	5.1	0	33.5	26.2	7.0	0
CC(I)C(C)OP1(=S)OC(C)C(C)S1 (stereo not drawn) [Compound 45]	39.2	30.0	1.6	0	24.2	15.5	6.0	0	34.0	20.4	5.7	0
CCCOP1(=S)OCCS1 (stereo not drawn) [Compound 46, 2-(0-n-propyl)-2-thio-1,3,2-oxathiophospholane]	34.6	28.7	4.2	0	25.1	18.9	7.9	0	34.2	24.3	5.8	0
CCCOP1(=S)OC(C)CS1 (stereo not drawn) [Compound 47, 2-(0-n-propyl)-2-thio-5-methyl-1,3,2-oxathiophospholane]	33.9	30.2	3.9	0	23.8	20.1	8.3	0	33.5	25.7	7.0	0
CCCOP1(=S)OCC(C)S1 (stereo not drawn) [Compound 48, 2-(0-n-propyl)-2-thio-4-methyl-1,3,2-oxathiophospholane]	35.8	29.1	2.8	0	24.2	19.2	8.5	0	36.1	24.6	6.3	0
CCC(C)OP1(=S)OCCS1 (stereo not drawn) [Compound 49]	37.2	30.4	4.0	0	26.3	20.3	7.5	0	34.3	25.9	7.0	0
CC(C)COP1(=S)OCCS1 (stereo not drawn) [Compound 50, 2-(0-2'-methyl-n-propyl)-2-thio-1,3,2-oxathiophospholane]	36.5	29.7	3.7	0	25.1	19.2	7.7	0	35.2	23.8	5.3	0
CCCOP1(=S)OCC(CC)S1 (stereo not drawn) [Compound 51, 2-(0-n-propyl)-2-thio-4-ethyl-1,3,2-oxathiophospholane]	34.3	30.0	3.2	0	24.9	18.7	8.2	0	35.1	24.3	6.9	0
CC(C)COP1(=S)OC(C)CS1 (stereo not drawn) [Compound 52, 2-(0-2'-methyl-n-propyI)-2-thio-5-methyl-1,3,2-oxathiophospholane]	37.1	28.6	3.0	0	26.2	20.0	8.8	0	34.8	26.2	4.7	0
